The values that follow come from US12371454B2, “Cyclic peptide compound having Kras inhibitory action” (priority 2019, dated 2025).

Starred links: 1 amine or outer side, 2 acyl side, 3 side chain; linkers in the order of their positions; H or OH if unused. Positions of bridges follow the written chain, without caps; N, C: chain ends. Non-standard residues stand in square brackets, D forms with d. Residues, ends and D or L forms follow the SMILES beside them. *: point of attachment. hPhe(3-Cl-4-CF3) = N[C@@H](CCc1ccc(C(F)(F)F)c(Cl)c1)C(=O)O; X23 = CN([C@@H](Cc1ccccc1OC(F)(F)F)C(=O)[*:2])[*:1]; 3Oxa8azabicyclo(3.2.1)octane = C1CC2COCC1N2*; NMePhe(4-Cl) = CN[C@@H](Cc1ccc(Cl)cc1)C(=O)O; hPhe(4-Cl) = N[C@@H](CCc1ccc(Cl)cc1)C(=O)O; NMeMet(O2) = CN[C@@H](CCS(C)(=O)=O)C(=O)O; Leu(4,5-dehydro) = C=C(C)C[C@H](N)C(=O)O; Phe(3-I) = N[C@@H](Cc1cccc(I)c1)C(=O)O; NMeCha = CN[C@@H](CC1CCCCC1)C(=O)O; NMeGly(cPr) = CN[C@H](C(=O)O)C1CC1; NMeCba = CN[C@@H](CC1CCC1)C(=O)O; NMeChg = CN[C@H](C(=O)O)C1CCCCC1; NMeI = CC[C@H](C)[C@H](NC)C(=O)O; NMeD = CN[C@@H](CC(=O)O)C(=O)O; NMeL = CN[C@@H](CC(C)C)C(=O)O; Cba = N[C@@H](CC1CCC1)C(=O)O; NMeV = CN[C@H](C(=O)O)C(C)C; d(β3hA) = C[C@@H](N)CC(=O)O; Ac6c = NC1(C(=O)O)CCCCC1; NMeAib = CNC(C)(C)C(=O)O; Nle = CCCC[C@H](N)C(=O)O; Piperidide = C1CCN(*)CC1; Ac5c = NC1(C(=O)O)CCCC1; Aze = O=C(O)[C@@H]1CCN1; Thp = NC1(C(=O)O)CCOCC1; Sar = CNCC(=O)O

The target in this assay is T1, Kras and SOS1 (biotin-tagged human Kras loaded with GDP, His-tagged human SOS1) (Homo sapiens, UniProt P01116, G12D).
T1 construct: made in house; host or cells: E. coli (stated for Kras only)
T1 sequence (P01116 1-188 isoform P01116-2 G12D): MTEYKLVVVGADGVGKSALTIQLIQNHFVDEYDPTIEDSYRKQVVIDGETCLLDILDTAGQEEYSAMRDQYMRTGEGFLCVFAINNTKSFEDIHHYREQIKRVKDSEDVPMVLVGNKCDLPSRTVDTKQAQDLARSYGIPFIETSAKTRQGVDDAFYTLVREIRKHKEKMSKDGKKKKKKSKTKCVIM
Briefly: Protein-protein interaction inhibition between Kras and SOS1 (KrasGl2D-SOS PPI) using AlphaScreen. It counts as binding. Conditions: AlphaScreen; biotin-tagged human Kras loaded with GDP, His-tagged human SOS1; read-out: KRAS G12D-SOS PPI IC50. Summed up: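 Read-out is acceptor-bead light at 520-620 nm, arising when 680 nm-irradiated nickel donor beads pass singlet oxygen to streptavidin acceptors. The bead pair links His-tagged SOS1 with biotin-tagged, GDP-bound Kras from E. coli.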
As to `CCCC[C@@H]1NC(=O)[C@H](Cc2cccc(I)c2)NC(=O)CN(C)C(=O)[C@H](Cc2ccc(Cl)cc2)N(C)C(=O)CN(C)C(=O)CN(C)C(=O)[C@H]([C@@H](C)CC)NC(=O)[C@H](CC(C)C)N(C)C(=O)C[C@@H](C(=O)N2CCCCC2)N(C)C(=O)[C@H](CC2CCC2)NC(=O)C(C)(C)N(C)C1=O` [Compound 1422] ([NMeL]I[Sar][Sar][NMePhe(4-Cl)][Sar][Phe(3-I)][Nle][NMeAib][Cba][NMeD]-Piperidide; lactam N-11), the IC50 came out at 16 nM.

Turning to `C=C(C)C[C@@H]1NC(=O)[C@H](Cc2cccc(I)c2)NC(=O)CN(C)C(=O)[C@H](Cc2ccc(Cl)cc2)N(C)C(=O)[C@@H]2CCN2C(=O)CN(C)C(=O)[C@H]([C@@H](C)CC)NC(=O)[C@H](CC(C)C)N(C)C(=O)C[C@@H](C(=O)N2CCCCC2)N(C)C(=O)[C@H](CC(C)C)NC(=O)C(C)(C)N(C)C1=O` [Compound 1414] ([NMeL]I[Sar][Aze][NMePhe(4-Cl)][Sar][Phe(3-I)][Leu(4,5-dehydro)][NMeAib]L[NMeD]-Piperidide; lactam N-11), the concentration for half-maximal inhibition (IC50) turned out to be 38 nM.

On to `CC[C@H](C)[C@@H]1NC(=O)[C@H](CC(C)C)N(C)C(=O)C[C@@H](C(=O)N2CCCCC2)N(C)C(=O)[C@H](C(C)C)N(C)C(=O)C2(CCOCC2)NC(=O)[C@@H]2CCCN2C(=O)[C@H](CCc2ccc(Cl)cc2)NC(=O)CN(C)C(=O)[C@H](CC2CCCCC2)N(C)C(=O)CN(C)C(=O)CN(C)C1=O` [Compound 448] ([NMeL]I[Sar][Sar][NMeCha][Sar][hPhe(4-Cl)]P[Thp][NMeV][NMeD]-Piperidide; lactam N-11), for which the IC50 is 91 nM.

For the compound `CC[C@H](C)[C@@H]1NC(=O)[C@H](CC(C)C)N(C)C(=O)C[C@@H](C)NC(=O)[C@H](C(C)C)N(C)C(=O)C2(CCCC2)NC(=O)[C@@H]2CCCN2C(=O)[C@H](CCc2ccc(C(F)(F)F)c(Cl)c2)NC(=O)CN(C)C(=O)[C@H](Cc2ccccc2OC(F)(F)F)N(C)C(=O)CN(C)C(=O)CN(C)C1=O` [Compound 1635] (cyclo([Ac5c][NMeV][d(β3hA)][NMeL]I[Sar][Sar][X23][Sar][hPhe(3-Cl-4-CF3)]P)), the IC50 was 140 nM.

Turning to `CC[C@H](C)[C@@H]1NC(=O)[C@H](CC2CCC2)N(C)C(=O)C[C@@H](C)NC(=O)[C@H](C(C)C)N(C)C(=O)C2(CCCC2)NC(=O)[C@@H]2CCCN2C(=O)[C@H](CCc2ccc(C(F)(F)F)c(Cl)c2)NC(=O)CN(C)C(=O)[C@H](CC2CCCCC2)N(C)C(=O)CN(C)C(=O)CN(C)C1=O` [Compound 230] (cyclo([Ac5c][NMeV][d(β3hA)][NMeCba]I[Sar][Sar][NMeCha][Sar][hPhe(3-Cl-4-CF3)]P)), the 50% inhibitory concentration (IC50) was 39 nM.

With `CC[C@H](C)[C@@H]1NC(=O)[C@H](CC(C)C)N(C)C(=O)C[C@@H](C(=O)N2CCCCC2)N(C)C(=O)[C@H](C(C)C)N(C)C(=O)C2(CCCC2)NC(=O)[C@@H]2CCCN2C(=O)[C@H](CCc2ccc(C(F)(F)F)c(Cl)c2)NC(=O)CN(C)C(=O)[C@H](CC2CCCCC2)N(C)C(=O)[C@@H]2CCN2C(=O)[C@H](C2CC2)N(C)C1=O` [Compound 1553] ([NMeL]I[NMeGly(cPr)][Aze][NMeCha][Sar][hPhe(3-Cl-4-CF3)]P[Ac5c][NMeV][NMeD]-Piperidide; lactam N-11), the IC50 is 12 nM.

For the compound `CC[C@H](C)[C@@H]1NC(=O)[C@H](CC(C)C)N(C)C(=O)C[C@@H](C(=O)N2CCCCC2)N(C)C(=O)[C@H](CCS(C)(=O)=O)N(C)C(=O)C2(CCCC2)NC(=O)[C@@H]2CCCN2C(=O)[C@H](CCc2ccc(C(F)(F)F)c(Cl)c2)NC(=O)CN(C)C(=O)[C@H](CC2CCCCC2)N(C)C(=O)CN(C)C(=O)CN(C)C1=O` [Compound 162] ([NMeL]I[Sar][Sar][NMeCha][Sar][hPhe(3-Cl-4-CF3)]P[Ac5c][NMeMet(O2)][NMeD]-Piperidide; lactam N-11), the concentration for half-maximal inhibition (IC50) came to 230 nM.

As for `CC[C@H](C)[C@@H]1NC(=O)[C@H](CC(C)C)N(C)C(=O)C[C@@H](C(=O)N2CCCCC2)N(C)C(=O)[C@H](C2CCCCC2)N(C)C(=O)C2(CCCCC2)NC(=O)[C@@H]2CCCN2C(=O)[C@H](CCc2ccc(C(F)(F)F)c(Cl)c2)NC(=O)CN(C)C(=O)[C@H](CC2CCCCC2)N(C)C(=O)CN(C)C(=O)CN(C)C1=O` [Compound 1644] ([NMeL]I[Sar][Sar][NMeCha][Sar][hPhe(3-Cl-4-CF3)]P[Ac6c][NMeChg][NMeD]-Piperidide; lactam N-11), the IC50 came out at 3.1 nM.

Consider `CC[C@H](C)[C@@H]1NC(=O)[C@H](CC(C)C)N(C)C(=O)C[C@@H](C(=O)N2C3CCC2COC3)NC(=O)[C@H]([C@@H](C)CC)N(C)C(=O)C2(CCCC2)NC(=O)[C@@H]2CCCN2C(=O)[C@H](CCc2ccc(C(F)(F)F)c(Cl)c2)NC(=O)CN(C)C(=O)[C@H](CC2CCCCC2)N(C)C(=O)CN(C)C(=O)CN(C)C1=O` [Compound 1257] ([NMeL]I[Sar][Sar][NMeCha][Sar][hPhe(3-Cl-4-CF3)]P[Ac5c][NMeI]D-{3Oxa8azabicyclo(3.2.1)octane}; lactam N-11), for which the IC50 worked out at 6.5 nM.
